Measurements taken from ChEMBL document CHEMBL5550185, “Targeting hTERT Promoter G-Quadruplex DNA Structures with Small-Molecule Ligand to Downregulate hTERT Expression for Triple-Negative Breast Cancer Therapy” (J Med Chem, 2024).
pIC50: −log10 of the molar value. Calls of active or inactive are those of the source.

Columns and labels:
MDA-MB-231 [1] = assay: Antitumor activity against human MDA-MB-231 cells xenografted in iv dosed female Balb/c mouse assessed as nuclear fragmentation in tumor administered via tail vein every 2 days for 16 days by H and E staining based analysis; type: functional, organism-based; details: dose 2-5 mg/kg, time 16.0 day
[2] = Upregulation of HLA-E gene expression in human MDA-MB-231 cells assessed as fold change at 1 uM measured after 48 hrs by RNA-seq analysis relative to control; type: functional
MDA-MB-231 [3] = assay: Induction of ferroptosis in human MDA-MB-231 cells assessed as reduction in GPX4 protein expression at 0 to 1.5 uM measured after 48 hrs by Western blot analysis; type: functional, cell-based; details: dose 0-1.5 µM
[4] = Upregulation of CCNB3 gene expression in human MDA-MB-231 cells assessed as fold change at 1 uM measured after 48 hrs by RNA-seq analysis relative to control; type: functional
[5] = Toxicity in female Balb/c nude mouse xenografted with human MDA-MB-231 cells assessed as change in ALT level at 2 to 5 mg/kg, iv administered via tail vein every 2 days for 16 days; type: organism-based; details: in vivo, 384 h, dose 2-5 mg/kg, time 16 day
MDA-MB-231 [6] = assay: Antitumor activity against human MDA-MB-231 cells xenografted in female Balb/c mouse assessed as reduction in tumor volume at 2 mg/kg, iv administered via tail vein every 2 days for 16 days relative to control; type: functional; set-up: scale not given: the % may be the effect or the level left; details: time 16 day
MDA-MB-231 [7] = assay: Downregulation of ND1 gene expression in human MDA-MB-231 cells at 1 uM measured after 48 hrs by RNA-seq analysis; type: functional, cell-based
MDA-MB-231 [8] = assay: Inhibition of cell migration in human MDA-MB-231 cells at 0 to 1.5 uM measured after 48 hrs by crystal violet staining based microscopic analysis; type: functional; details: dose 0-1.5 µM
[9] = Upregulation of PLK4 gene expression in human MDA-MB-231 cells assessed as fold change at 1 uM measured after 48 hrs by RNA-seq analysis relative to control; type: functional
[10] = Upregulation of IRS1 gene expression in human MDA-MB-231 cells assessed as fold change at 1 uM measured after 48 hrs by RNA-seq analysis relative to control; type: functional
MDA-MB-231 [11] = assay: Downregulation of p62 protein expression in human MDA-MB-231 cells at 0 to 1.5 uM measured after 48 hrs by Western blot analysis; type: functional, cell-based; details: dose 0-1.5 µM
[12] = Upregulation of IL-1A gene expression in human MDA-MB-231 cells assessed as fold change at 1 uM measured after 48 hrs by RNA-seq analysis relative to control; type: functional
[13] = Upregulation of HLA-F gene expression in human MDA-MB-231 cells assessed as fold change at 1 uM measured after 48 hrs by RNA-seq analysis relative to control; type: functional
[14] = Toxicity in female Balb/c nude mouse xenografted with human MDA-MB-231 cells assessed as reduction in body weight at 2 to 5 mg/kg, iv administered via tail vein every 2 days for 16 days; type: organism-based; details: in vivo, 384 h, dose 2-5 mg/kg, time 16 day
MDA-MB-231 [15] = assay: Inhibition of hTERT protein expression in human MDA-MB-231 cells measured after 48 hrs by Western blot analysis; type: functional, cell-based; details: dose 0-1.5 µM
Quadruplex DNA = assay: Binding affinity to RET G4 DNA (unknown origin) assessed as thermal stability by measuring change in melting temperature at 400 uM […]; type: nucleic-acid assay
[16] = Toxicity in female Balb/c nude mouse xenografted with human MDA-MB-231 cells assessed as pathological changes in spleen at 2 to 5 mg/kg, iv administered via tail vein every 2 days for 16 days by H and E staining based analysis; type: organism-based; details: in vivo, 384 h, dose 2-5 mg/kg, time 16 day
MDA-MB-231 [17] = assay: Inhibition of TRF2 protein expression in human MDA-MB-231 cells measured after 48 hrs by Western blot analysis; type: functional, cell-based; details: dose 0-1.5 µM
PC-3 = assay: Cytotoxicity against telomerase-positive human PC-3 cells assessed as inhibition of cell growth incubated for 48 hrs by MTT assay; type: functional, cell-based; details: PC-3, 48 h
[18] = Upregulation of CALML6 gene expression in human MDA-MB-231 cells assessed as fold change at 1 uM measured after 48 hrs by RNA-seq analysis relative to control; type: functional
MDA-MB-231 [19] = assay: Induction of cell cycle arrest in human MDA-MB-231 cells assessed as accumulation of cells at S phase at 0.5 to 1.5 uM measured after 48 hrs by 7-aminoactinomycin D/RNase staining based flow cytometry analysis (reference value: 23.4%); type: functional; details: dose 0.5-1.5 µM
MDA-MB-231 [20] = assay: Downregulation of CTCF mRNA expression in human MDA-MB-231 cells at 0 to 1.5 uM measured after 48 hrs by qRT-PCR analysis; type: functional, cell-based; details: dose 0-1.5 µM
MDA-MB-231 [21] = assay: Induction of telomere dysfunction in human MDA-MB-231 cells assessed as cellular senescence at 0.2 uM measured after 10 days by SA-beta-gal staining based analysis; type: functional, cell-based; details: time 10.0 day
[22] = Upregulation of HMOX1 gene expression in human MDA-MB-231 cells assessed as fold change at 1 uM measured after 48 hrs by RNA-seq analysis relative to control; type: functional
MDA-MB-231 [23] = assay: Antitumor activity against human MDA-MB-231 cells xenografted in iv dosed female Balb/c mouse assessed as nucleolysis in tumor administered via tail vein every 2 days for 16 days by H and E staining based analysis; type: functional, organism-based; details: dose 2-5 mg/kg, time 16.0 day
[24] = Toxicity in female Balb/c nude mouse xenografted with human MDA-MB-231 cells assessed as change in platelet count at 2 to 5 mg/kg, iv administered via tail vein every 2 days for 16 days; type: organism-based; details: in vivo, 384 h, dose 2-5 mg/kg, time 16 day
[25] = Upregulation of FTH1 gene expression in human MDA-MB-231 cells assessed as fold change at 1 uM measured after 48 hrs by RNA-seq analysis relative to control; type: functional
[26] = Upregulation of CCNB1 gene expression in human MDA-MB-231 cells assessed as fold change at 1 uM measured after 48 hrs by RNA-seq analysis relative to control; type: functional
[27] = Upregulation of PCBP3 gene expression in human MDA-MB-231 cells assessed as fold change at 1 uM measured after 48 hrs by RNA-seq analysis relative to control; type: functional
MDA-MB-231 [28] = assay: Cytotoxicity against human MDA-MB-231 cells transfected with hTERT-pcDNA3.1(+)-C-eBFP overexpressing hTERT assessed as inhibition of cell growth measured after 48 hrs by MTT assay; type: functional, cell-based; details: MDA-MB-231, 48 h
[29] = Toxicity in female Balb/c nude mouse xenografted with human MDA-MB-231 cells assessed as change in uric acid level at 2 to 5 mg/kg, iv administered via tail vein every 2 days for 16 days; type: organism-based; details: in vivo, 384 h, dose 2-5 mg/kg, time 16 day
MDA-MB-231 [30] = assay: Downregulation of LC3-I protein expression in human MDA-MB-231 cells at 0 to 1.5 uM measured after 48 hrs by Western blot analysis; type: functional, cell-based; details: dose 0-1.5 µM
[31] = Upregulation of EGF gene expression in human MDA-MB-231 cells assessed as fold change at 1 uM measured after 48 hrs by RNA-seq analysis relative to control; type: functional
[32] = molecular target: Telomerase reverse transcriptase (Homo sapiens) (UniProt O14746); assay: Inhibition of telomerase activity in human MDA-MB-231 cells at >=1 uM incubated for 30 mins by SYBR Gold staining based TRAP assay; type: cell-based
[33] = Toxicity in female Balb/c nude mouse xenografted with human MDA-MB-231 cells assessed as change in blood urea nitrogen level at 2 to 5 mg/kg, iv administered via tail vein every 2 days for 16 days; type: organism-based; details: in vivo, 384 h, dose 2-5 mg/kg, time 16 day

Sequence of Telomerase reverse transcriptase (Homo sapiens) (O14746 whole entry): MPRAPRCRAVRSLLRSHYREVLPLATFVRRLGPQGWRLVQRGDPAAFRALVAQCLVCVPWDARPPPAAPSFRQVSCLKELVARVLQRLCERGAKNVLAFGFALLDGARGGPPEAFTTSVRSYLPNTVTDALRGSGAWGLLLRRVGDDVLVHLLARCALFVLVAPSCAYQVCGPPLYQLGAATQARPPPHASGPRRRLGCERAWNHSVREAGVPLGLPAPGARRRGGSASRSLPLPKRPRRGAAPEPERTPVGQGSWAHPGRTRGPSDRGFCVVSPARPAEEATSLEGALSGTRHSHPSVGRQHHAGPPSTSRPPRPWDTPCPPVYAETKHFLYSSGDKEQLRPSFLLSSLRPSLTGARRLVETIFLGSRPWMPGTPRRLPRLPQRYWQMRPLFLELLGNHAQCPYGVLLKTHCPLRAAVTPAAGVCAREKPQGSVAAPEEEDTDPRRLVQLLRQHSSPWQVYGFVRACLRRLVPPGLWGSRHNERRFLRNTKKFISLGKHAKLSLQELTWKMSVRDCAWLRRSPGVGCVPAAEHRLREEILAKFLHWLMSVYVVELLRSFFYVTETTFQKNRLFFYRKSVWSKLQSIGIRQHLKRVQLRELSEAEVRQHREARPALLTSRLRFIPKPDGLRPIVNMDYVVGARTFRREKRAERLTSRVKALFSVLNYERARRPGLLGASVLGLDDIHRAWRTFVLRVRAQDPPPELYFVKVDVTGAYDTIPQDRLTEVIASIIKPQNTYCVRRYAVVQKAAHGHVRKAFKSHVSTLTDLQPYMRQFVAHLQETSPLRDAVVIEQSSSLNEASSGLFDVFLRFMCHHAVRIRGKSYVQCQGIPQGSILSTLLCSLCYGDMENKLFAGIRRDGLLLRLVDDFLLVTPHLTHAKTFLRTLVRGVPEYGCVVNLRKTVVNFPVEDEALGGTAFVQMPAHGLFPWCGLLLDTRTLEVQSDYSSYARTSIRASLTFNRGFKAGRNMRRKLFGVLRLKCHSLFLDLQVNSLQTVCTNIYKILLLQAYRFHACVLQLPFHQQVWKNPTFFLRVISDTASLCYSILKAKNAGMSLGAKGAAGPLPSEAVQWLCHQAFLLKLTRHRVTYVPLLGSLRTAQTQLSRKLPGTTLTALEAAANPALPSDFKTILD

C[n+]1c(/C=C/c2c[nH]c3ccccc23)cc(/C=C2\Sc3ccccc3N2CCCN2CCC(C(F)(F)F)CC2)c2ccccc21.[I-]
Non-Toxic: Activity [5] | Activity [14] | Activity [16] | Activity [24] | Activity [29] | Activity [33]
inactive: Activity (MDA-MB-231 [20])
5.60: pIC50 (PC-3)
5.48: pIC50 (MDA-MB-231 [28])
>2: fold change (FC) [2] | fold change (FC) [4] | fold change (FC) [9] | fold change (FC) [10] | fold change (FC) [12] | fold change (FC) [13] | fold change (FC) [18] | fold change (FC) [22] | fold change (FC) [25] | fold change (FC) [26] | fold change (FC) [27] | fold change (FC) [31]
active: Activity (MDA-MB-231 [1]) Dose-Dependent Effect | Activity (MDA-MB-231 [3]) | Activity (MDA-MB-231 [7]) | inhibition (MDA-MB-231 [8]) | Activity (MDA-MB-231 [11]) | inhibition (MDA-MB-231 [15]) Dose-Dependent Effect | inhibition (MDA-MB-231 [17]) Dose-Dependent Effect | Activity (MDA-MB-231 [21]) | Activity (MDA-MB-231 [23]) Dose-Dependent Effect | Activity (MDA-MB-231 [30]) | inhibition [32]
52.6%: Activity (MDA-MB-231 [6])
4.6%: Activity (MDA-MB-231 [19])
0.96 °C: ΔTm (Quadruplex DNA)
